Experimental data as given in PubChem BioAssay (NCI).
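Step 1: Grow cells in 96-well plates. Step 2: Expose to compound for 48 hours at 5 concentrations. Step 3: Interpolate endpoints linearly; if unreached, use highest concentration. Here, GI50 denotes the concentration required for 50% inhibition of growth. At the TGI there is no net growth.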

Tests used:
Test in all cases: NCI anticancer screen, dose series, 48 h
CCRF-CEM leukemia = tested on: CCRF-CEM leukemia
PC-3 prostate = tested on: PC-3 prostate
NCI/ADR-RES ovarian = tested on: NCI/ADR-RES ovarian
OVCAR-5 ovarian = tested on: OVCAR-5 ovarian
MDA-N = tested on: MDA-N
RPMI-8226 leukemia = tested on: RPMI-8226 leukemia
SF-295 CNS = tested on: SF-295 CNS
SK-MEL-28 melanoma = tested on: SK-MEL-28 melanoma
786-0 renal = tested on: 786-0 renal
SK-MEL-5 melanoma = tested on: SK-MEL-5 melanoma
DU-145 prostate = tested on: DU-145 prostate
HT29 colon = tested on: HT29 colon
UACC-257 melanoma = tested on: UACC-257 melanoma
HCT-116 colon = tested on: HCT-116 colon
M14 melanoma = tested on: M14 melanoma
MDA-MB-231 breast = tested on: MDA-MB-231 breast
U251 CNS = tested on: U251 CNS
SK-MEL-2 melanoma = tested on: SK-MEL-2 melanoma
IGROV1 ovarian = tested on: IGROV1 ovarian
NCI-H226 lung = tested on: NCI-H226 lung
SNB-75 CNS = tested on: SNB-75 CNS
MALME-3M melanoma = tested on: MALME-3M melanoma
SF-268 CNS = tested on: SF-268 CNS
OVCAR-3 ovarian = tested on: OVCAR-3 ovarian
UACC-62 melanoma = tested on: UACC-62 melanoma
MDA-MB-435 = tested on: MDA-MB-435
BT-549 breast = tested on: BT-549 breast
SN12C renal = tested on: SN12C renal
HL-60(TB) leukemia = tested on: HL-60(TB) leukemia
COLO 205 colon = tested on: COLO 205 colon
MOLT-4 leukemia = tested on: MOLT-4 leukemia
SNB-19 CNS = tested on: SNB-19 CNS
HOP-62 NSCLC = tested on: HOP-62 NSCLC
K-562 leukemia = tested on: K-562 leukemia
ACHN renal = tested on: ACHN renal
OVCAR-8 ovarian = tested on: OVCAR-8 ovarian
UO-31 renal = tested on: UO-31 renal
SK-OV-3 ovarian = tested on: SK-OV-3 ovarian
NCI-H23 lung = tested on: NCI-H23 lung
HS 578T breast = tested on: HS 578T breast
SR leukemia = tested on: SR leukemia
HCC-2998 colon = tested on: HCC-2998 colon
NCI-H460 lung = tested on: NCI-H460 lung
MCF7 breast = tested on: MCF7 breast
A549 NSCLC = tested on: A549 NSCLC
SW-620 colon = tested on: SW-620 colon
HCT-15 colon = tested on: HCT-15 colon
KM12 colon = tested on: KM12 colon
OVCAR-4 ovarian = tested on: OVCAR-4 ovarian
A498 renal = tested on: A498 renal
HOP-92 NSCLC = tested on: HOP-92 NSCLC
TK-10 renal = tested on: TK-10 renal
NCI-H522 lung = tested on: NCI-H522 lung
T-47D breast = tested on: T-47D breast
SF-539 CNS = tested on: SF-539 CNS
LOX IMVI melanoma = tested on: LOX IMVI melanoma
CAKI-1 renal = tested on: CAKI-1 renal
RXF 393 renal = tested on: RXF 393 renal
EKVX NSCLC = tested on: EKVX NSCLC

CCC[n+]1cc2cc(OC)c(OC)cc2c2c1-c1cc3c(cc1C2)OCO3
GI50 (CCRF-CEM leukemia): 2.53 µM | GI50 (PC-3 prostate): 4.7 µM | TGI (PC-3 prostate): 20.7 µM | GI50 (NCI/ADR-RES ovarian): 35.2 µM | TGI (NCI/ADR-RES ovarian): > 100 µM | GI50 (OVCAR-5 ovarian): 32.9 µM | TGI (OVCAR-5 ovarian): 67.8 µM | GI50 (MDA-N): 2.83 µM | TGI (MDA-N): 11 µM | GI50 (RPMI-8226 leukemia): 2.34 µM | TGI (RPMI-8226 leukemia): 16 µM | GI50 (SF-295 CNS): 8.1 µM | TGI (SF-295 CNS): 26.6 µM | GI50 (SK-MEL-28 melanoma): 3.03 µM | TGI (SK-MEL-28 melanoma): 10.6 µM | GI50 (786-0 renal): 1.11 µM | TGI (786-0 renal): 12.3 µM | GI50 (SK-MEL-5 melanoma): 2.09 µM | TGI (SK-MEL-5 melanoma): 7.11 µM | GI50 (DU-145 prostate): 7.82 µM | TGI (DU-145 prostate): 38.6 µM | GI50 (HT29 colon): 5.03 µM | TGI (HT29 colon): > 34.6 µM | GI50 (UACC-257 melanoma): 1.19 µM | TGI (UACC-257 melanoma): 3.87 µM | GI50 (HCT-116 colon): 3.39 µM | TGI (HCT-116 colon): 23.6 µM | GI50 (M14 melanoma): 7.64 µM | TGI (M14 melanoma): 22 µM | GI50 (MDA-MB-231 breast): 4.71 µM | TGI (MDA-MB-231 breast): 15.4 µM | GI50 (U251 CNS): 0.211 µM | TGI (U251 CNS): 3.57 µM | GI50 (SK-MEL-2 melanoma): 2.65 µM | TGI (SK-MEL-2 melanoma): 9.18 µM | GI50 (IGROV1 ovarian): 2.27 µM | TGI (IGROV1 ovarian): 12.6 µM | GI50 (NCI-H226 lung): 1.03 µM | TGI (NCI-H226 lung): 8.13 µM | GI50 (SNB-75 CNS): 0.843 µM | TGI (SNB-75 CNS): 4.52 µM | GI50 (MALME-3M melanoma): 1.65 µM | TGI (MALME-3M melanoma): 4.01 µM | GI50 (SF-268 CNS): 0.568 µM | TGI (SF-268 CNS): 5.84 µM | GI50 (OVCAR-3 ovarian): 0.955 µM | TGI (OVCAR-3 ovarian): 5.78 µM | GI50 (UACC-62 melanoma): 2.06 µM | TGI (UACC-62 melanoma): 5.77 µM | GI50 (MDA-MB-435): 3.29 µM | TGI (MDA-MB-435): 12.4 µM | GI50 (BT-549 breast): 0.658 µM | TGI (BT-549 breast): 10.6 µM | GI50 (SN12C renal): 0.638 µM | TGI (SN12C renal): 6.84 µM | GI50 (HL-60(TB) leukemia): 11 µM | TGI (HL-60(TB) leukemia): > 54.1 µM | GI50 (COLO 205 colon): 1.61 µM | TGI (COLO 205 colon): 8.52 µM | GI50 (MOLT-4 leukemia): 1.92 µM | TGI (MOLT-4 leukemia): 11.4 µM | GI50 (SNB-19 CNS): 0.254 µM | TGI (SNB-19 CNS): 1.68 µM | GI50 (HOP-62 NSCLC): 3.92 µM | TGI (HOP-62 NSCLC): 19.7 µM | GI50 (K-562 leukemia): 3.03 µM | TGI (K-562 leukemia): > 20.5 µM | GI50 (ACHN renal): 9.45 µM | TGI (ACHN renal): 36.7 µM | GI50 (OVCAR-8 ovarian): 2.18 µM | TGI (OVCAR-8 ovarian): 6.23 µM | GI50 (UO-31 renal): 13.1 µM | TGI (UO-31 renal): 35.1 µM | GI50 (SK-OV-3 ovarian): 25.6 µM | TGI (SK-OV-3 ovarian): 52.3 µM | GI50 (NCI-H23 lung): 2.34 µM | TGI (NCI-H23 lung): 13.2 µM | GI50 (HS 578T breast): 1.63 µM | TGI (HS 578T breast): 13.6 µM | GI50 (SR leukemia): 2.18 µM | TGI (SR leukemia): 26.2 µM | GI50 (HCC-2998 colon): 3.99 µM | TGI (HCC-2998 colon): 14.9 µM | GI50 (NCI-H460 lung): 2.98 µM | TGI (NCI-H460 lung): 11.3 µM | GI50 (MCF7 breast): 2.59 µM | TGI (MCF7 breast): > 33.8 µM | GI50 (A549 NSCLC): 18.3 µM | TGI (A549 NSCLC): 35.5 µM | GI50 (SW-620 colon): 2.83 µM | TGI (SW-620 colon): 23.7 µM | GI50 (HCT-15 colon): 46.9 µM | TGI (HCT-15 colon): > 100 µM | GI50 (KM12 colon): 2.12 µM | TGI (KM12 colon): 7.03 µM | GI50 (OVCAR-4 ovarian): 4.84 µM | TGI (OVCAR-4 ovarian): 19.2 µM | GI50 (A498 renal): 17.6 µM | TGI (A498 renal): 50.9 µM | GI50 (HOP-92 NSCLC): 10.1 µM | TGI (HOP-92 NSCLC): 40.6 µM | GI50 (TK-10 renal): 22.6 µM | TGI (TK-10 renal): 58.9 µM | GI50 (NCI-H522 lung): 0.0792 µM | TGI (NCI-H522 lung): 1.71 µM | GI50 (T-47D breast): 0.583 µM | TGI (T-47D breast): 3.92 µM | GI50 (SF-539 CNS): 0.992 µM | TGI (SF-539 CNS): 6.34 µM | GI50 (LOX IMVI melanoma): 8.25 µM | TGI (LOX IMVI melanoma): > 62.2 µM | GI50 (CAKI-1 renal): 7.14 µM | TGI (CAKI-1 renal): 44.2 µM | GI50 (RXF 393 renal): 17 µM | TGI (RXF 393 renal): 35.7 µM | GI50 (EKVX NSCLC): 11.9 µM | TGI (EKVX NSCLC): 48 µM
